# Laboratory results: patent US20260092074A1, “Annelated Pyridines as Steroidogenesis Inhibitors, Preparation Method and Use Thereof” (Guangzhou Vinnocent Pharmaceutical Limited, priority 2022, published 2026)
# Experiments:
# [1] = target: T1, human CYP11B1 (Homo sapiens, UniProt P15538); assay: Inhibition of hCYP11B1 in transfected V79 cells; format: cell-based; conditions: hamster V79 cells expressing human CYP11B1; substrate 11-deoxycortisol 200 nM
# T1 construct: expressed in transfected cells
# T1 sequence (P15538 25-503): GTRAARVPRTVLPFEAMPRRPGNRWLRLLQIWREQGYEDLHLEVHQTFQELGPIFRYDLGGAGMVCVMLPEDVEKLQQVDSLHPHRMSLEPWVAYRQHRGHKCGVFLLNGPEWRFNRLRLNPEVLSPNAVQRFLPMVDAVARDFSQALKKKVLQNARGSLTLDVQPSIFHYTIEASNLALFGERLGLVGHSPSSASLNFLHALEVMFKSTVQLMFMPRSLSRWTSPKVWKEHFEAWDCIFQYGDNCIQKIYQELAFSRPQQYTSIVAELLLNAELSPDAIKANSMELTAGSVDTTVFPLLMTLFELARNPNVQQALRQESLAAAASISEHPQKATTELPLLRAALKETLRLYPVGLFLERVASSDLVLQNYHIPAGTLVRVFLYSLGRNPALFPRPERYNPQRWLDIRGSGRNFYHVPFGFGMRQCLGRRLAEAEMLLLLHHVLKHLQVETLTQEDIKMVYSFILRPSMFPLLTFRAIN
# Procedure, shortened: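 V79 hamster cells stably expressing human CYP11B1 and rat NADPH-P450 reductase were preincubated with compounds for 2 h. 11-Deoxycortisol (200 nM) was then added as substrate for 30 min before ethyl acetate quench. Substrate and product were quantified by LC-MS/MS or HPLC at 260 nm, and IC50 was derived from percent inhibition.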
# [2] = target: T2, human CYP11B2 (Homo sapiens, UniProt P19099); assay: Inhibition of hCYP11B2 in transfected V79 cells; format: cell-based; conditions: hamster V79 cells expressing human CYP11B2; substrate 11-deoxycorticosterone 200 nM
# T2 construct: expressed in transfected cells
# T2 sequence (P19099 25-503): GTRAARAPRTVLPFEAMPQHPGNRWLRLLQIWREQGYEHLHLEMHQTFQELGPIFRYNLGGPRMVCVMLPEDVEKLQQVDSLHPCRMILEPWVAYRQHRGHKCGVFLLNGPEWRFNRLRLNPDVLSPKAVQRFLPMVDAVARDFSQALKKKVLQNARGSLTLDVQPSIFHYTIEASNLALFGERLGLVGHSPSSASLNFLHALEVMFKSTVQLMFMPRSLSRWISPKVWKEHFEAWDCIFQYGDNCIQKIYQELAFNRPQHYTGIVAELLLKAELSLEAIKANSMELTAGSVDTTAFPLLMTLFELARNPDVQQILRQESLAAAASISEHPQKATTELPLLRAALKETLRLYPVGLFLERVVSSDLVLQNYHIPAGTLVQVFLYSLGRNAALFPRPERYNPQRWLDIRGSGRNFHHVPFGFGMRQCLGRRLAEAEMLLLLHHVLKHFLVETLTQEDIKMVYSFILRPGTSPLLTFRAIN
# Procedure, shortened: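 Hamster V79 cells stably co-expressing human CYP11B2 and rat NADPH-P450 reductase were pre-incubated with compounds for 2 hours, then given 200 nM 11-deoxycorticosterone for 30 minutes before ethyl acetate quench. Substrate and product were quantified by LC-MS/MS or HPLC at 260 nm, and IC50 was derived from percent inhibition.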
IC50 [1] [nM],IC50 [2] [nM],Compound
2.9,0.7,"COc1ccc(S(=O)(=O)N2CCSc3c(-c4cccc(C#N)c4)cncc32)cc1 [S27, 3-(4-((4-Methoxyphenyl)sulfonyl)-3,4-dihydro-2H-pyrido[4,3-b][1,4]thiazin-8-yl)benzonitrile]"
1.8,0.2,"COc1ccc(S(=O)(=O)N2CCSc3c(-c4ccc(Cl)cc4)cncc32)cc1 [S28, 8-(4-Chlorophenyl)-4-((4-methoxyphenyl)sulfonyl)-3,4-dihydro-2H-pyrido[4,3-b][1,4]thia zine]"
7.3,1.5,"COc1ccc(S(=O)(=O)N2CCSc3c(-c4cccc(Cl)c4)cncc32)cc1 [S29, 8-(3-Chlorophenyl)-4-((4-methoxyphenyl)sulfonyl)-3,4-dihydro-2H-pyrido[4,3-b][1,4]thia zine]"
19,1,"COc1ccc(S(=O)(=O)N2CCSc3c(-c4ccc(F)cc4)cncc32)cc1 [S30, 8-(4-Fluorophenyl)-4-((4-methoxyphenyl)sulfonyl)-3,4-dihydro-2H-pyrido[4,3-b][1,4]thia zine]"
136,5.9,"COc1ccc(S(=O)(=O)N2CCSc3c(-c4cccc(F)c4)cncc32)cc1 [S31, 8-(3-Fluorophenyl)-4-((4-methoxyphenyl)sulfonyl)-3,4-dihydro-2H-pyrido[4,3-b][1,4]thia zine]"
468,10.3,"COc1ccc(S(=O)(=O)N2CCSc3c(-c4ccc(C(F)(F)F)cc4)cncc32)cc1 [S32, 4-((4-methoxyphenyl)sulfonyl)-8-(4-(trifluoromethyl)phenyl)-3,4-dihydro-2H-pyrido[4,3-b][1,4]thiazine]"
5.4,0.09,"COc1ccc(S(=O)(=O)N2CCSc3c(-c4ccc(F)c(C)c4)cncc32)cc1 [S33, 8-(4-Fluoro-3-methylphenyl)-4-((4-methoxyphenyl)sulfonyl)-3,4-dihydro-2H-pyrido[4,3-b][1,4]thiazine]"
13.4,0.17,"COc1ccc(S(=O)(=O)N2CCSc3c(-c4ccc(F)c(Cl)c4)cncc32)cc1 [S34, 8-(3-chloro-4-fluorophenyl)-4-((4-methoxyphenyl)sulfonyl)-3,4-dihydro-2H-pyrido[4,3-b][1,4]thiazine]"
0.35,0.12,"COc1ccc(S(=O)(=O)N2CCSc3c(-c4ccc(C#N)c(F)c4)cncc32)cc1 [S35, 2-Fluoro-4-(4-((4-methoxyphenyl)sulfonyl)-3,4-dihydro-2H-pyrido[4,3-b][1,4]thiazin-8-yl) benzonitrile]"
30.4,5.6,"COc1ccc(S(=O)(=O)N2CCSc3c(-c4ccsc4)cncc32)cc1 [S36, 4-((4-Methoxyphenyl)sulfonyl)-8-(thiophen-3-yl)-3,4-dihydro-2H-pyrido[4,3-b][1,4]thiazine]"
84,6,"COc1ccc(S(=O)(=O)N2CCSc3c(-c4cccs4)cncc32)cc1 [S37, 4-((4-Methoxyphenyl)sulfonyl)-8-(thiophen-2-yl)-3,4-dihydro-2H-pyrido[4,3-b][1,4]thiazine]"
0.7,2.1,"COc1ccc(S(=O)(=O)N2CCSc3c(-c4ccco4)cncc32)cc1 [S38, 8-(Furan-2-yl)-4-((4-methoxyphenyl)sulfonyl)-3,4-dihydro-2H-pyrido[4,3-b][1,4]thiazine]"
137,264,"COc1ccc(S(=O)(=O)N2CCSc3c(-c4cn[nH]c4)cncc32)cc1 [S39, 4-((4-Methoxyphenyl)sulfonyl)-8-(1H-pyrazol-4-yl)-3,4-dihydro-2H-pyrido[4,3-b][1,4]thia zine]"
657,6.7,"N#Cc1ccc(S(=O)(=O)N2CCSc3c(-c4cc5ccccc5o4)cncc32)cc1 [S40, 4-((8-(Benzofuran-2-yl)-2,3-dihydro-4H-pyrido[4,3-b][1,4]thiazin-4-yl)sulfonyl)benzonitrile]"
99,0.4,"N#Cc1ccc(S(=O)(=O)N2CCSc3c(-c4cc5cc(Cl)ccc5o4)cncc32)cc1 [S41, 4-((8-(5-Chlorobenzofuran-2-yl)-2,3-dihydro-4H-pyrido[4,3-b][1,4]thiazin-4-yl)sulfonyl) benzonitrile]"
24,0.3,"N#Cc1ccc(S(=O)(=O)N2CCSc3c(-c4cc5cc(C#N)ccc5o4)cncc32)cc1 [S42, 2-(4-((4-Cyanophenyl)sulfonyl)-3,4-dihydro-2H-pyrido[4,3-b][1,4]thiazin-8-yl)benzofuran-5-carbonitrile]"
621,6.5,"N#Cc1ccc(S(=O)(=O)N2CCSc3c(-c4cc5ccccc5s4)cncc32)cc1 [S43, 4-((8-(Benzo[b]thiophen-2-yl)-2,3-dihydro-4H-pyrido[4,3-b][1,4]thiazin-4-yl)sulfonyl)benzonitrile]"
782,46,"N#Cc1ccc(S(=O)(=O)N2CCSc3c(-c4ccc5occc5c4)cncc32)cc1 [S44, 4-((8-(Benzofuran-5-yl)-2,3-dihydro-4H-pyrido[4,3-b][1,4]thiazin-4-yl)sulfonyl)benzonitrile]"
1460,11.6,"Cn1ncc2ccc(-c3cncc4c3SCCN4S(=O)(=O)c3ccc(C#N)cc3)cc21 [S45, 4-((8-(1-Methyl-1H-indazol-6-yl)-2,3-dihydro-4H-pyrido[4,3-b][1,4]thiazin-4-yl)sulfonyl) benzonitrile]"
322,2.8,"N#Cc1ccc(S(=O)(=O)N2CCSc3c(-c4ccc5ncsc5c4)cncc32)cc1 [S46, 4-((8-(Benzo[d]thiazol-6-yl)-2,3-dihydro-4H-pyrido[4,3-b][1,4]thiazin-4-yl)sulfonyl)benzonitrile]"
14,25,"N#Cc1ccc(S(=O)(=O)N2CCSc3c(-c4ccc5[nH]ncc5c4)cncc32)cc1 [S48, 4-((8-(1H-Indazol-5-yl)-2,3-dihydro-4H-pyrido[4,3-b][1,4]thiazin-4-yl)sulfonyl)benzonitrile]"
7,27,"N#Cc1ccc(S(=O)(=O)N2CCSc3c(-c4ccc5nc[nH]c5c4)cncc32)cc1 [S49, 4-((8-(1H-Benzo[d]imidazol-6-yl)-2,3-dihydro-4H-pyrido[4,3-b][1,4]thiazin-4-yl)sulfonyl)benzonitrile]"
298,52,"N#Cc1ccc(S(=O)(=O)N2CCSc3c(-c4ccn5ccnc5c4)cncc32)cc1 [S50, 4-((8-(Imidazo[1,2-a]pyridin-7-yl)-2,3-dihydro-4H-pyrido[4,3-b][1,4]thiazin-4-yl)sulfonyl)benzonitrile]"
1970,10.3,"N#Cc1ccc(S(=O)(=O)N2CCSc3c(-c4ccc5c(c4)CC(=O)N5)cncc32)cc1 [S51, 4-((8-(2-Oxoindolin-5-yl)-2,3-dihydro-4H-pyrido[4,3-b][1,4]thiazin-4-yl)sulfonyl)benzonitrile]"
697,32,"CN1C(=O)CCc2cc(-c3cncc4c3SCCN4S(=O)(=O)c3ccc(C#N)cc3)cc(F)c21 [S52, 4-((8-(8-Fluoro-1-methyl-2-oxo-1,2,3,4-tetrahydroquinolin-6-yl)-2,3-dihydro-4H-pyrido[4,3-b][1,4]thiazin-4-yl)sulfonyl)benzonitrile]"
72,0.9,"COc1ccc(S(=O)(=O)N2CCSc3c(-c4cc5cc(Cl)ccc5o4)cncc32)cn1 [S53, 8-(5-Chlorobenzofuran-2-yl)-4-((6-methoxypyridin-3-yl)sulfonyl)-3,4-dihydro-2H-pyrido[4,3-b][1,4]thiazine]"
549,16,"O=S(=O)(c1ccc(O)nc1)N1CCSc2c(-c3cc4cc(Cl)ccc4o3)cncc21 [S54, 5-((8-(5-Chlorobenzofuran-2-yl)-2,3-dihydro-4H-pyrido[4,3-b][1,4]thiazin-4-yl)sulfonyl) pyridin-2-ol]"
10.6,0.2,"Cn1cc(S(=O)(=O)N2CCSc3c(-c4cc5cc(Cl)ccc5o4)cncc32)cn1 [S55, 8-(5-Chlorobenzofuran-2-yl)-4-((1-methyl-1H-pyrazol-4-yl)sulfonyl)-3,4-dihydro-2H-pyrido[4,3-b][1,4]thiazine]"
